Measured values published in patent EP1030659B1 (Warner-Lambert Company LLC, priority 1997, dated 1999).
Like-named read-outs stand apart in the source and are kept apart here.

Columns and labels:
Male Swiss-Webster mice [1] = experiment: Locomotor stimulant effects (horizontal locomotor activity); format: in vivo; conditions: i.p.; for ED50: Mus musculus, ip, dose resulting in ½ the maximal stimulant effect, read-out: Stimulation Potency (ED50); for locomotor stimulant effects, time course (in words): 2-hour session; for Stimulation Efficacy: ratio of the maximal stimulant effect of the test compound to the maximal effect of (+)-amphetamine
[2] = Rat dosage calculated from the dog dosage that raises MAP by 10%; format: in vivo; conditions: calculated from the dog dosage by proportionately decreasing for the lesser weight of the rat; absolute dosage
Method: (§1) Nasal airway pressure was measured using a Validyne pressure transducer (Validyne Engineering, Northridge, CA) with a 2.25 cm H2O range membrane connected to a multipen recorder (Grass Instruments, Quincy, MA). Air was passed through an in-line direct measure flow meter (Gilmont Instruments, Barrington, IL) connected to the nasal opening cannula. Pressure was measured in the line with a constant flow rate (150 ml/min) of air. Drugs were directly injected into the jugular vein using a 30 gauge needle. All injections were of a constant 0.1 ml volume. In the congestion challenged groups congestion was achieved by an intranasal administration of histamine (50 mM, 0.02 ml/nostril). The histamine was expelled after 2 minutes with a short nasal cannula airflow and subsequent enantiomeric drug doses were directly injected into the jugular vein. The dosage chosen for each drug was the amount needed to increase the mean arterial pressure (MAP) of the animal by 10%; this dosage served as the "100%" dose for the initial nasal airway studies. […] The dosage required for rats was calculated by proportionately adjusting the experimentally determined dog dosage to account for the lesser weight of the rats.

[3] = Nasal airway pressure (decongestant activity) in normal and histamine-challenged rats; format: in vivo, Sprague Dawley rats; conditions: for Mean Decrease in Nasal Airway Pressure / effect on normal airway decongestion (in words): rats; for Mean Decrease in Nasal Airway Pressure: mean ± standard error; for effect on normal airway decongestion (in words): 75% dose; for Post Drug nasal airway pressure: 100% dose into the jugular vein; for %Change in nasal airway pressure: 100% dose
α1-receptors = experiment: Alpha-1 binding, 3H-prazocin, canine lung membranes; parameters: species or system mongrel dogs; conditions: for Ki: Ki = IC50 / 1 + I/Kd, Kd from saturation analysis, unit inferred
[4] = Dosage required to raise mean arterial pressure (MAP) by 10% in dogs; format: in vivo; conditions: experimentally determined
Method: as §1

α2-receptors = experiment: Alpha-2 binding, p-125iodoclonidine, canine brain (frontal cortex) membranes; parameters: species or system mongrel dogs; conditions: for Ki: Ki = IC50 / 1 + I/Kd, Kd from saturation analysis, unit inferred; for IC50: inhibition of 50% of specific p-iodoclonidine binding, mean of several test samples; for Kd: canine cerebral cortex membranes
Method: • PULMONARY ALPHA-1 AND BETA-2 RECEPTORS. The lungs of mongrel dogs were separated from cartilaginous airways and major blood vessels, weighed, chopped and placed into 10 volumes of ice-cold buffered sucrose (50 mM Tris-HCl, pH 7.4, 1 mM EGTA, 0.32 M sucrose). The tissue was then homogenized in a type PT10/35, size 89/PTA 20S, Polytron tissue homogenizer (Kinematica, Westbury, NY). The homogenate was filtered through two layers of cheesecloth, and the filtrate was dounced three times using a 55 ml Con-Torque Potter homogenizer (Eberbach Corporation, Ann Arbor, Ml). […] The supematant was re-centrifuged at 30,000 x g for 30 minutes at 4°C and the resulting pellet was washed and resuspended in 10 volumes of Tris buffer (50 mM Tris HCL, pH 7.4, 1 mM EGTA) and incubated at 37°C for 30 minutes in a shaking water bath. The suspension was centrifuged at 4°C at 30,000 x g for 30 minutes and the resulting pellet washed in 10 volumes of Tris buffer for a total of three additional centrifugations and washes. […] Protein concentration was determined by the Lowry method and the final suspension was adjusted to 10 mg of protein/ml, aliquoted and stored at -90°C. Particulates were also prepared for β2 receptors using the identical procedure except the final protein concentration was adjusted to 0.1 mg/ml. • BRAIN ALPHA-2 RECEPTORS: Membranes of mongrel dogs were harvested from the canine frontal cortex and prepared as described above with respect to the lungs, except that the final membrane protein concentration was adjusted to 0.5 mg/ml.
Nonspecific binding was determined for each concentration point in separate incubations using 10 µM phentolamine. Each experimental point was determined in triplicate. […] All binding assay incubations were terminated by rapid dilution with 2 ml of ice-cold wash buffer (50 mM Tris-HCl, pH 7.4) and filtration through FP-100 Whatman GF/B fired filters (Biomedical Research & Development Lab, Gaithersburg, MD) using a Brandel receptor-binding harvester. The filters were washed twice more with 4 ml of wash buffer and then added to 6 ml Cytoscint (ICN, Costa Mesa CA) for liquid scintillation counting (Barnes et al., 23 MOL. PHARMACOL. 570-75 (1983)). […] Nonspecific binding was determined in separate incubations in the presence of 10 µM phentolamine. The final concentration of p-iodoclonidine was 44-45 pM in competition studies and between 50 pM and 10 nM in saturation experiments. Bound and free p-^125 iodoclonidine were separated and the bound quantitated as described below for the ICYP assays. […] Nonspecific binding was determined in separate incubations in the presence of 2 µM d,I-propranolol. Each experimental point was determined in triplicate. […] Incubations were terminated as described above for the α1 assays. Filters were placed into polyethylene tubes and the bound ligand was determined by gamma spectrometry(Sano et al., 52 LIFE SCIENCES 1063-70 (1993)).
All data were analyzed with the aid of microcomputer nonlinear curve fitting programs (PRISM 2.0, Graphpad Software, San Diego CA).
The receptors resident in each of the three membrane preparations were evaluated by standard saturation analysis following the addition of increasing concentrations of the appropriate radioligand.
The radioligand added for subsequent α2-displacement assays was adjusted to evaluate only the high affinity receptor. Contributions from p-iodoclonidine binding to imidazoline receptors in the α2- displacement assay was evaluated with epinephrine.

Male Swiss-Webster mice [5] = experiment: H1 antihistamine (triprolidine) interaction studies, locomotor activity; conditions: for interaction with triprolidine pretreatment (central nervous system stimulation, horizontal movement): pretreatment with 0.01, 0.1, or 1.0 mg/kg triprolidine 20 minutes before the sympathomimetic
[6] = Mean arterial blood pressure after the 75% dose in rats
β2-receptors = target: T1, β2-receptors (Canis lupus familiaris, UniProt P54833); experiment: Beta-2 binding, 125iodocyanopindolol (ICYP), canine lung membranes; parameters: species or system mongrel dogs
T1 construct: The lungs of mongrel dogs were separated from cartilaginous airways and major blood vessels; from tissue; host or cells: mongrel dog lung membranes

[7] = 5% of the dose that increased canine resting mean arterial pressure 10%
[8] = 10% of the dose that increased canine resting mean arterial pressure 10%
[9] = 25% of the dose that increased canine resting mean arterial pressure 10%
[10] = 50% of the dose that increased canine resting mean arterial pressure 10%
[11] = histamine-challenged rats (50 mM, 0.02 ml/nostril)
[12] = histamine-challenged rats, relative to post-histamine level
[13] = non-histamine-challenged rats, relative to control

T1 sequence (P54833 whole entry): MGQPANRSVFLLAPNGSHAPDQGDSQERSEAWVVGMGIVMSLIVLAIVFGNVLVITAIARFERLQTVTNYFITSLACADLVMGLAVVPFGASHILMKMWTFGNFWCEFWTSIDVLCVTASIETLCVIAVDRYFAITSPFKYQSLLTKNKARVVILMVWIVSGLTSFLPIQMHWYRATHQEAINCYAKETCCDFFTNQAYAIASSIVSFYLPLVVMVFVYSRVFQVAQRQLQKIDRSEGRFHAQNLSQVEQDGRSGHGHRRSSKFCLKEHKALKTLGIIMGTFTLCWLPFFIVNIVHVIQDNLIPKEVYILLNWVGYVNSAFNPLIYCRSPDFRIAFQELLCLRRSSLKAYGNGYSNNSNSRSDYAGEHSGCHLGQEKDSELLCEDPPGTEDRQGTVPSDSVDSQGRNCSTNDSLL

Row | SMILES | ED50 (Male Swiss-Webster mice [1]) [mg/kg] | locomotor stimulant effects, time course (in words) (Male Swiss-Webster mice [1]) | Dosage of Enantiomer, Rat [2] [µg] | Mean Decrease in Nasal Airway Pressure [3, 7] | Mean Decrease in Nasal Airway Pressure [3, 8] | Mean Decrease in Nasal Airway Pressure [3, 9] | Mean Decrease in Nasal Airway Pressure [3, 10] | Post Drug nasal airway pressure [3, 11] [mm water] | %Change in nasal airway pressure [3, 12] [%] | Post Drug nasal airway pressure ([3]; non-histamine-challenged rats) [mm H2O] | %Change in nasal airway pressure [3, 13] [%] | Ki (α1-receptors) [nM] | Dosage of Enantiomer, Dog: dosage required to raise MAP by 10% [4] [µg/kg] | Ki (α2-receptors) [nM] | IC50 (α2-receptors) [nM] | interaction with triprolidine pretreatment (central nervous system stimulation, horizontal movement) (Male Swiss-Webster mice [5]) | Stimulation Efficacy (Male Swiss-Webster mice [1]) | also measured
1 | CC(N)Cc1ccccc1 (single isomer, unassigned; (+)) [(+)-amphetamine] | 1.3 | dose- and time-dependent increase in the distance traversed |  |  |  |  |  |  |  |  |  |  |  |  |  |  |  | 
2 | CN[C@H](C)[C@@H](O)c1ccccc1 [(+)-ephedrine] | 84.9 | small increase in locomotor activity | 60 | […] | […] | […] | […] | […] | […] | 7 ± 0.9 | […] | 40000 | […] | […] | […] | No such central nervous system stimulation | 0.25 | effect on normal airway decongestion (in words) [3]: approximately the same efficacious effect on normal airway decongestion
3 | CN[C@@H](C)[C@@H](O)c1ccccc1 [(+)-pseudoephedrine] | 12.6 | Little or no stimulant effects | 60 | […] | […] | […] | […] | 6.1 ±1.5 | -36.7 ±2.7 | 7 ± 0.9 | […] | […] | […] | […] | […] | increased horizontal movement | […] | 
4 | CN[C@@H](C)[C@H](O)c1ccccc1 [(-)-ephedrine] | […] | Dose dependent increases in locomotor activity of slower onset and longer duration | […] | […] | -2.5 ± 1.5 | […] | […] | 6.4 ±0.6 | -21.8 ±3.5 | 6 ± 0.5 | […] | 47000 | […] | […] | […] | increased horizontal movement | […] | effect on normal airway decongestion (in words) [3]: approximately the same efficacious effect on normal airway decongestion; increase in blood pressure (in words) [6]: slightly greater (though significant) increase in blood pressure than (+)-ephedrine
5 | CNC[C@H](O)c1cccc(O)c1 [(-)-phenylephrine] |  |  | 3 to 5 | -1.6 ± 0.9 | -4.8 ± 0.8 | -12.1 ± 2.3 | -5.2 ± 1.6 | 10.5 ±2.1 | -22.3 ±8.5 | 4 ± 0.2 | -20.3 ± 4.3 | 3000 | 10 |  |  |  | 0 | IC50 (α1-receptors): 7000 nM
6 | CNC[C@H](O)c1ccc(O)c(O)c1 [Epinephrine, epinephrine] |  |  |  |  |  |  |  |  |  |  |  |  |  |  |  |  |  | displacement of bound p-iodoclonidine (α2-receptors; check for binding to imidazoline receptors in the α2-displacement assay): easily displaced all bound p-iodoclonidine
7 | CC(C)(C)NCC(O)COc1cccc2[nH]c(C#N)c(I)c12 (stereo not shown) [ICYP, iodocyanopindolol] |  |  |  |  |  |  |  |  |  |  |  |  |  |  |  |  |  | Kd (β2-receptors; Saturation Analysis, Run 1): 0.0096 nM; Kd (β2-receptors; Saturation Analysis, Run 2): 0.0093 nM; Kd (β2-receptors; Saturation Analysis, Summary): 0.0095 nM; Kd (β2-receptors; Scatchard Analysis, Run 1): 0.0099 nM; Kd (β2-receptors; Scatchard Analysis, Run 2): 0.0078 nM; Kd (β2-receptors; Scatchard Analysis, Summary): 0.0089 nM
8 | CC(C)(C)NCC(O)COc1cccc2[nH]c(C#N)c([125I])c12 (stereo not shown) [ICYP, iodocyanopindolol] |  |  |  |  |  |  |  |  |  |  |  |  |  |  |  |  |  | Bmax (β2-receptors; Saturation Analysis, Run 1): 149 femtomoles per mg protein; Bmax (β2-receptors; Saturation Analysis, Run 2): 142 femtomoles per mg protein; Bmax (β2-receptors; Saturation Analysis, Summary): 146 femtomoles per mg protein; Bmax (β2-receptors; Scatchard Analysis, Run 1): 150 femtomoles per mg protein; Bmax (β2-receptors; Scatchard Analysis, Run 2): 139 femtomoles per mg protein; Bmax (β2-receptors; Scatchard Analysis, Summary): 145 femtomoles per mg protein
9 | Clc1cc(I)cc(Cl)c1NC1=NCCN1 [p-iodoclonidine] |  |  |  |  |  |  |  |  |  |  |  |  |  |  |  |  |  | Kd (α2-receptors; Saturation Analysis, read-out: Kd 1 (high affinity)): 0.15 nM; Kd (α2-receptors; Saturation Analysis, read-out: Kd 2 (high affinity)): 3.01 nM; Kd (α2-receptors; Scatchard Analysis, read-out: Kd 1 (high affinity)): 0.15 nM; Kd (α2-receptors; Scatchard Analysis, read-out: Kd 2 (low affinity)): 0.87 nM
10 | Cc1ccc(/C(=C\CN2CCCC2)c2ccccn2)cc1 [triprolidine] |  |  |  |  |  |  |  |  |  |  |  |  |  |  |  |  |  | effect on horizontal distance, triprolidine alone (Male Swiss-Webster mice [5]; 0.25 to 25 mg/kg, injected immediately prior to testing, 2-hour test period): failed to affect horizontal distance; effect on locomotion, triprolidine alone (Male Swiss-Webster mice [5]; 50 and 100 mg/kg, beginning within 10 minutes, lasting 30 to 40 minutes): Dose-dependent depression of locomotion
